What was measured:
[1] = system: eIF2α phosphorylation (ATF-4 5′UTR luciferase reporter); assay: surrogate eIF2α phosphorylation dual-luciferase reporter (DLR) assay; type: cell-based; conditions: F/R luciferase ratio normalized to DMSO wells (F/R=1); for fold induction at 1.25 µM: read-out: Fold stimulation of ATF-4 Surrogate eIF2α @ 1.25 μM; for fold induction at 5 µM: read-out: Fold stimulation of ATF-4 Surrogate eIF2α @ 5 μM
Description: The dual luciferase expression vector and other plasmids used in the Examples provided herein have been previously reported (see e.g., Ziegeler et al, J. Biol. Chem. 285 (2010) 15408-15419). The dual luciferase surrogate eIF2α phosphorylation assay, has also been previously reported (see e.g., Chen et al, Nat. Chem. Biol. 7 (2011) 610-616). Briefly, a dual Renilla and Firefly luciferase mammalian reporter vector that transcribes both mRNAs from the same bi-directional enhancer/promoter complex was utilized for generation of surrogate eIF2α phosphorylation assay (see e.g., Ziegeler et al, J. Biol. Chem. 285 (2010) 15408-15419). Both mRNAs contained the same 90 nucleotide plasmid derived 5′UTR. In addition, 5′UTR of the Firefly luciferase open reading frame was fused in-frame to the 267 nucleotide ATF-4 5′UTR (see e.g., Chen et al, Nat. Chem. Biol. 7 (2011) 610-616).
Cells expressing firefly and renilla luciferases were assayed with a dual glow luciferase assay kit, per manufacturer's instruction (Promega Inc., Madison, WI). The data calculations were carried out as the ratio of firefly to renilla luciferase signal (see e.g., Ziegeler et al, J. Biol. Chem. 285 (2010) 15408-15419). Dose-response curves were obtained, and triplicate data points were fitted to the logistical sigmoidal model using nonlinear least-squares regression performed in GraphPad Prism 6.
All newly synthesized N,N′-disubstituted ureas were initially evaluated by testing in the surrogate eIF2α phosphorylation dual-luciferase reporter (DLR) assay (see e.g., Chen et al, Nat. Chem. Biol. 7 (2011) 610-616; and Ziegeler et al, J. Biol. Chem. 285 (2010) 15408-15419). Briefly, this assay takes advantage of the fact that activated HRI phosphorylates eIF2α which inhibits eIF2 guanine nucleotide exchange factor eIF2B, responsible for exchanging the GDP in the eIF2·GDP complex for GTP. The reduction in the recycling of eIF2·GDP into eIF2·GTP interferes with the formation of eIF2·GTP·Met-tRNAi ternary complex. […] These include mRNA coding for activating transcription factor 4 (ATF-4) (see e.g., Aktas et al, Oncotarget, 4 (2013) 1606-1617; Aktas et al, Oncotarget, 6 (2015) 6902-6914; and Aktas et al, Proc. Natl. Acad. Sci. U.S.A. 95 (1998) 8280-8285).
In the present assay, firefly (F) luciferase mRNA was fused to the 5′UTR of ATF-4 mRNA that had multiple uORFs, while renilla (R) luciferase mRNA was fused to a 5′UTR lacking any uORFs. Agents that reduce the amount of the eIF2·GTP·Met-tRNAi ternary complex, such as N,N′-disubstituted ureas that activate HRI, increase F luciferase expression while reducing the R luciferase expression, resulting in an increased F/R luciferase ratio. The ureas of the present application were tested at 10 μM, 5 μM, 2.5 μM, and 1.25 μM concentrations in 96-well assay plates (see e.g., Chen et al, Nat. Chem. Biol. 7 (2011) 610-616; and Bai et al, ChemBioChem, 14 (2013) 1255-1262). The activity scores as the F/R ratios were calculated for every compound-treated well and normalized to F/R ratio of vehicle-treated (DMSO) wells in the same plate, arbitrarily set at 1 (F/R=1). Data obtained in the surrogate dual-luciferase eIF2α phosphorylation (DLR) assay for the series of 1-phenyl-3/4-(4-trifluorometyl) phenoxy-cycloalkyl)ureas (4-CF3-ΦcAlkΦUs) and 1-phenyl-3-(5-(4-(trifluoromethyl) phenoxy)pyrimidin-2-yl)ureas (4-CF3-ΦOPyΦUs) described herein are shown in Tables 1-2.

[2] = system: human melanoma CRL-2813 cells; assay: sulforhodamine B (SRB) cell proliferation assay; type: cell-based; conditions: Homo sapiens, CRL2813, 120 h, 5 days, read-out: IC50 (concentration that inhibits growth of human melanoma CRL-2813 cells by 50%)
Experimental: Cells were seeded in 96-well plates and maintained for 5 days in the presence of 0.5 μM to 20 μM of individual compound, and cell proliferation was measured by the sulforhodamine B (SRB) assay according to previous reports (see e.g., Palakurthi et al, Cancer Res. 60 (2000) 2919-2925): briefly, at the end of a 5-day treatment, cells were fixed in 10% cold trichloroacetic acid. Cell number was estimated by measuring the remaining bound dye of sulforhodamine B after washing. The percentage of growth was calculated by using the equation: 100×[(T-T0)/(C-T0)], where T and C represent the absorbance in treated and control cultures at Day 5, and T0 at time zero, respectively. If T was less than T0, cell death had occurred and was calculated from 100×[(T-T0)/T0].
All 4-CF3-ΦOcAlkΦUs were tested in the sulforhodamine B (SRB) cell proliferation assay to establish the concentrations that inhibit human melanoma CRL-2813 cells growth by 50% (IC50) (see Table 1). This activity reflects a combined effect of membrane permeability and overall anti-proliferative effects that include on target and off-target effects.

| IC50 [2] [nM] | melting point [°C] | SMILES | Fold stimulation of ATF-4 Surrogate eIF2α @ 1.25 μM [1] [fold] | fold induction at 1.25 µM [1] | fold induction at 5 µM ([1]; 5 μM) | Fold stimulation of ATF-4 Surrogate eIF2α @ 5 μM ([1]; 5 μM) [fold] |
| --- | --- | --- | --- | --- | --- | --- |
| 900 | 194.6 to 196.1 | N#Cc1cc(NC(=O)N[C@H]2C[C@@H](Oc3ccc(C(F)(F)F)cc3)C2)cc(C(F)(F)F)c1 [Compound 1-IVc, 1-(3-Cyano-5-(trifluoromethyl)phenyl)-3-(cis-3-(4-(trifluoromethyl)phenoxy)cyclobutyl)urea] | 4.3 ± 0.6 | 4.3 | 8.4 ± 0.5 | – |
| 1200 | 144.4 to 146.2 | N#Cc1cc(NC(=O)N[C@H]2CC[C@H](Oc3ccc(C(F)(F)F)cc3)C2)cc(C(F)(F)F)c1 [Compound 1-V, 1-(3-Cyano-5-(trifluoromethyl)phenyl)-3-((1S,3S)-3-(4-(trifluoromethyl)phenoxy)cyclopentyl)urea] | 3.1 ± 0.7 | 3.1 | 8.3 | 8.3 ± 2.4 |
| – | 263.5 to 265.5 | N#Cc1cc(NC(=O)Nc2ncc(Oc3ccc(C(F)(F)F)cc3)cn2)cc(C(F)(F)F)c1 [Compound 1-py, 1-(3-Cyano-5-(trifluoromethyl)phenyl)-3-(5-(4-(trifluoromethyl)phenoxy)pyrimidin-2-yl)urea] | – | – | – | – |
| 3400 ± 1000 | 171.8 to 174.6 | O=C(Nc1cccc(C(F)(F)F)c1)N[C@H]1C[C@H](Oc2ccc(C(F)(F)F)cc2)C1 [Compound 2-IV, 1-(trans-3-(4-(Trifluoromethyl)phenoxy)cyclobutyl)-3-(3-(trifluoromethyl)phenyl)urea] | – | 2.4 ± 0.6 | 6.5 ± 1.2 | – |
| 2600 ± 400 | 166.6 to 168.5 | O=C(Nc1cccc(C(F)(F)F)c1)N[C@H]1C[C@@H](Oc2ccc(C(F)(F)F)cc2)C1 [Compound 2-IVc, 1-(cis-3-(4-(Trifluoromethyl)phenoxy)cyclobutyl)-3-(3-(trifluoromethyl)phenyl)urea] | – | 1.2 ± 0.3 | 6.2 ± 1.2 | – |
| 2500 ± 500 | 123.5 to 125.3 | O=C(Nc1cccc(C(F)(F)F)c1)N[C@H]1CC[C@H](Oc2ccc(C(F)(F)F)cc2)C1 [Compound 2-V] | – | 1.2 ± 0.4 | 7 ± 0.9 | – |
| – | 232.5 to 234.8 | O=C(Nc1cccc(C(F)(F)F)c1)Nc1ncc(Oc2ccc(C(F)(F)F)cc2)cn1 [Compound 2-py, 1-(5-(4-(Trifluoromethyl)phenoxy)pyrimidin-2-yl)-3-(3-(trifluoromethyl)phenyl)urea] | – | – | – | – |
| 4900 | 181.1 to 182.3 | N#Cc1cccc(NC(=O)N[C@H]2C[C@H](Oc3ccc(C(F)(F)F)cc3)C2)c1 [Compound 3-IV, 1-(3-Cyanophenyl)-3-(trans-3-(4-(trifluoromethyl)phenoxy)cyclobutyl)urea] | 1.6 ± 0.2 | 1.6 | 3.5 ± 0.4 | – |
| > 10000 | 203.7 to 206.8 | N#Cc1cccc(NC(=O)N[C@H]2C[C@@H](Oc3ccc(C(F)(F)F)cc3)C2)c1 [Compound 3-IVc, 1-(3-Cyanophenyl)-3-(cis-3-(4-(trifluoromethyl)phenoxy)cyclobutyl)urea] | 1.1 ± 0.2 | 1.1 | 0.9 ± 0.1 | – |
| 6500 ± 2300 | 160.2 to 162.1 | N#Cc1cccc(NC(=O)N[C@H]2CC[C@H](Oc3ccc(C(F)(F)F)cc3)C2)c1 [Compound 3-V] | – | 0.8 ± 0.2 | 1.6 ± 0.2 | – |
| – | 260.2 to 261.5 | N#Cc1cccc(NC(=O)Nc2ncc(Oc3ccc(C(F)(F)F)cc3)cn2)c1 [Compound 3-py, 1-(3-Cyanophenyl)-3-(5-(4-(trifluoromethyl)phenoxy)pyrimidin-2-yl) urea] | – | – | – | – |
| 2800 ± 1300 | 182.8 to 185 | N#Cc1cc(F)cc(NC(=O)N[C@H]2C[C@H](Oc3ccc(C(F)(F)F)cc3)C2)c1 [Compound 4-IV, 1-(3-Cyano-5-fluorophenyl)-3-(trans-3-(4-(trifluoromethyl)phenoxy)cyclobutyl)urea] | – | 2 ± 0.4 | 5.3 ± 0.6 | – |
| 1900 ± 1300 | 176.2 to 177.8 | N#Cc1cc(F)cc(NC(=O)N[C@H]2CC[C@H](Oc3ccc(C(F)(F)F)cc3)C2)c1 [Compound 4-V] | – | 2.4 ± 0.3 | 8 ± 2 | – |
| – | 267.5 to 270 | N#Cc1cc(F)cc(NC(=O)Nc2ncc(Oc3ccc(C(F)(F)F)cc3)cn2)c1 [Compound 4-py, 1-(3-Cyano-5-fluorophenyl)-3-(5-(4-(trifluoromethyl)phenoxy)pyrimidin-2-yl)urea] | – | – | – | – |
| > 10000 | 204.2 to 206 | Cc1ccc(F)cc1NC(=O)N[C@H]1C[C@H](Oc2ccc(C(F)(F)F)cc2)C1 [Compound 7-IV, 1-(5-Fluoro-2-methylphenyl)-3-(trans-3-(4-(trifluoromethyl)phenoxy)cyclobutyl)urea] | – | 0.7 ± 0.2 | 1.4 ± 0.1 | – |
| 8000 ± 2500 | 209.8 to 211.4 | Cc1ccc(F)cc1NC(=O)N[C@H]1CC[C@H](Oc2ccc(C(F)(F)F)cc2)C1 [Compound 7-V, 1-(5-Fluoro-2-methylphenyl)-3-((1S,3S)-3-(4-(trifluoromethyl)phenoxy)cyclopentyl)urea] | – | 1.4 ± 0.1 | 1.3 ± 0.4 | – |
| – | 224.2 to 226.5 | Cc1ccc(F)cc1NC(=O)Nc1ncc(Oc2ccc(C(F)(F)F)cc2)cn1 [Compound 7-py, 1-(5-Fluoro-2-methylphenyl)-3-(5-(4-(trifluoromethyl)phenoxy)pyrimidin-2-yl)urea] | – | – | – | – |
| 1400 ± 300 | 221.6 to 223.6 | N#Cc1ccc(NC(=O)N[C@H]2CC[C@H](Oc3ccc(C(F)(F)F)cc3)CC2)c(F)c1 [Compound 8-VI, 1-(4-Cyano-2-fluorophenyl)-3-(trans-4-(4-(trifluoromethyl)phenoxy)cyclohexyl)urea] | – | 2.4 ± 0.4 | 6.2 ± 1.3 | – |
| – | 224.8 to 226.2 | O=C(Nc1ccc(F)c(F)c1)Nc1ncc(Oc2ccc(C(F)(F)F)cc2)cn1 [Compound 10-py, 1-(3,4-Difluorophenyl)-3-(5-(4-(trifluoromethyl)phenoxy)pyrimidin-2-yl) urea] | – | – | – | – |

Reference: patent US20240076272A1, “Activators of Heme Regulated Inhibitor Kinase (HRI)” (The Brigham and Women`s Hospital, Inc., priority 2019, published 2024)
